According to US11911373B2, “Attention evaluation and methods for medicating” (TECHNION RESEARCH & DEVELOPMENT FOUNDATION LIMITED, priority 2018, dated 2024):

Experiments:
[1] = test system: children suffering from ADHD; assay: Auditory Sustained Attention Test (ASAT, pre-pulse inhibition) before and 1 hour after MPH; assay type: in vivo, human; conditions: re-test about 1 hour after taking MPH, versus baseline
Text: (§1) Test subjects were escorted by their parents, and were asked not to take the MPH treatment in the morning of the experiment, and not to drink stimulating beverages such as coffee or energy drinks. The parents signed the consent form and provided the demographic data, following which the subject commenced the 3 steps procedure: • Baseline ASAT and EDA tests: The child was asked to sit on a stable chair in front of a computer screen, connected with EDA and EMG electrodes and requested to follow the instructions before wearing the headphones: • “You will be hearing different types of tones, some will be powerful and some will be moderate. […] When the session ends, all tones will be terminated” • Children diagnosed with ADHD were asked to take the MPH treatment and come back to the test room after 50 minutes. Controls were asked to take a break and return to the test room after 50 minutes. • Post 1-hour ASAT and EDA tests were conducted as at step 1. Auditory Sustained Attention Test (ASAT) […]
(§2) The session starts with 3 minutes of acclimatization period with 57 dB background noise level that is delivered continuously throughout the session. […] Ten “No stimulus” trials were recorded in order to evaluate baseline noise levels. […] The PPI is calculated as percent of the habituated/inhibited response as follows: 100−(max response to “pre+pulse” trial/max response to “pulse alone” trial×100).

[2] = test system: children suffering from ADHD; assay: Startle response, eye blink probability to startle stimuli; assay type: in vivo, human; conditions: baseline higher than controls
Text: as §1, §2

[3] = test system: children suffering from ADHD; assay: Electro dermal activity (EDA), skin conductance; assay type: in vivo, human; conditions: baseline higher than controls
Text: Test subjects were escorted by their parents, and were asked not to take the MPH treatment in the morning of the experiment, and not to drink stimulating beverages such as coffee or energy drinks. The parents signed the consent form and provided the demographic data, following which the subject commenced the 3 steps procedure: • Baseline ASAT and EDA tests: The child was asked to sit on a stable chair in front of a computer screen, connected with EDA and EMG electrodes and requested to follow the instructions before wearing the headphones: • “You will be hearing different types of tones, some will be powerful and some will be moderate. […] When the session ends, all tones will be terminated” • Children diagnosed with ADHD were asked to take the MPH treatment and come back to the test room after 50 minutes. Controls were asked to take a break and return to the test room after 50 minutes. • Post 1-hour ASAT and EDA tests were conducted as at step 1. […]
Electrodermal activity was monitored by changes in the skin conductance. […] An isolated skin conductance coupler (Mindlife) applied a constant 0.5V (DC) potential across the electrode pair and measured the conductivity at a sample rate of 10 Hz.
Scoring of the EDA signal: During the 3 minutes acclimatization period (subjected only to a 57 dB background white noise), all electro-dermal responses were counted as non-specific EDAs. […]

rat = rat model, cited Avital et al. 2011, PLoS One 6, e22059; cited from earlier work

COC(=O)C(c1ccccc1)C1CCCCN1 (stereo not shown) [MPH, methylphenidate]
ASAT performance (impairment across all pre-pulse intensities) following MPH treatment [1]: significantly recovered | eye blink probabilities to startle stimuli following MPH treatment [2]: do not alternate | EDAs (both specific and non-specific) following MPH treatment [3]: do not alternate | long term hormonal effects (rat): long term hormonal alterations related to hyper-anxiety and aggression
